This is an account of results in patent publication US20040102622A1, “Modulation of hepatocyte growth factor receptor expression” (Isis Pharmaceuticals Inc., priority 2002, published 2004).

Strand notation (5' to 3'): a small letter for the sugar, then the base; units joined by * are phosphorothioate-linked, units joined directly phosphodiester-linked; [ ] holds rarer units or linkages, { } end groups; capitals alone tell only the bases. e = 2'-O-(2-methoxyethyl) (MOE); [5mC] = 5-methylcytosine; d = 2'-deoxy (DNA)

In one series the test system is human hepatocyte growth factor receptor mRNA. Put plainly: Inhibition of human hepatocyte growth factor receptor mRNA levels in T-24 cells, quantitative real-time PCR. As to % INHIB (inhibition of human hepatocyte growth factor receptor mRNA levels): test concentration or dose not given here. The conditions noted are these: averages from three experiments. A general note: In qPCR the cycle at which signal appears reflects the starting amount.
On to “155102 (antisense eG*eA*eG*eA*eG*dG*d[5mC]*dA*dT*dT*dG*dA*d[5mC]*dT*dG*e[5mC]*eA*eG*eG*eA) [compound 155102]”, for which the “% INHIB (inhibition of human hepatocyte growth factor receptor mRNA levels)” value (from here on “% INHIB”) stood at 35%.
Take “209533 (antisense e[5mC]*eA*e[5mC]*e[5mC]*eA*d[5mC]*dT*dG*dG*d[5mC]*dA*dA*dA*dG*d[5mC]*eA*eA*eA*eA*eT) [compound 209533]”: the “% INHIB” value is recorded as 47%.
Regarding “155133 (antisense eA*eA*eA*e[5mC]*e[5mC]*dA*dT*dT*dT*d[5mC]*dT*dG*dT*dA*dG*eT*eT*eG*eG*eG) [compound 155133]”, the “% INHIB” value is 68%.
On the same count and under the same terms, the value for “155114 (antisense eA*eA*eT*eT*eG*dT*dT*dG*d[5mC]*dT*dT*dT*d[5mC]*dA*dA*eA*eG*eG*e[5mC]*eA) [compound 155114]” was 94%; that for “209523 (antisense eG*eG*eG*e[5mC]*e[5mC]*dT*dT*d[5mC]*dA*dT*dT*dA*dT*dG*dA*eG*eA*eG*eG*eT) [compound 209523]” was 84%.
Same read-out and setting: under “209547 (antisense eT*e[5mC]*e[5mC]*eT*eG*d[5mC]*dT*dT*d[5mC]*dA*dA*dT*dT*dT*d[5mC]*e[5mC]*e[5mC]*eA*eT*eA) [compound 209547]” stands 84%; under “209548 (antisense eT*e[5mC]*eA*eA*eG*dA*dA*dG*d[5mC]*d[5mC]*d[5mC]*dT*d[5mC]*dA*dA*eT*eA*eT*eT*eT) [compound 209548]”, 67%.
Still for that read-out and setting: the value for “209551 (antisense e[5mC]*eT*eT*eG*eG*dG*dA*dG*dG*d[5mC]*dG*dA*dG*dT*dG*eT*e[5mC]*eA*e[5mC]*e[5mC]) [compound 209551]” was 0%; that for “155107 (antisense eT*e[5mC]*e[5mC]*eG*e[5mC]*dG*dG*dT*dG*dA*dA*dG*dT*dT*dG*eG*eG*eA*eA*eG) [compound 155107]” was 42%.
As to “155116 (antisense eA*eA*eA*eT*e[5mC]*dT*dT*dT*d[5mC]*dA*dT*dG*dA*dT*dG*eA*eT*eT*e[5mC]*e[5mC]) [compound 155116]”, the “% INHIB” value is on record as 54%.
In the case of “155121 (antisense eT*eG*eA*eA*eA*dG*dG*dA*d[5mC]*dT*dT*dT*dG*dG*d[5mC]*eT*e[5mC]*e[5mC]*e[5mC]*eA) [compound 155121]”, the “% INHIB” value came out at 79%.
Same read-out and setting: the value for “155129 (antisense eG*eA*eT*eT*eG*dG*dG*dT*d[5mC]*d[5mC]*dG*dT*dA*dA*dA*eA*eA*eT*eG*e[5mC]) [compound 155129]” was 59%; that for “209549 (antisense e[5mC]*e[5mC]*eT*eG*eA*dG*d[5mC]*dA*dT*dT*dA*d[5mC]*dT*dA*dT*e[5mC]*eT*e[5mC]*eT*eT) [compound 209549]” was 84%; that for “209541 (antisense eA*e[5mC]*e[5mC]*eA*eA*dG*dT*dA*d[5mC]*dT*dG*dT*dA*dA*dG*eA*eG*eA*eG*eG) [compound 209541]” was 40%.
On the same count and under the same terms, under “155104 (antisense eA*eT*eG*e[5mC]*eA*dA*dT*dG*dG*dA*dT*dG*dA*dT*d[5mC]*eT*eG*eG*eG*eA) [compound 155104]” stands 84%; under “209534 (antisense eA*eG*e[5mC]*eA*eT*dT*dA*d[5mC]*dT*dT*d[5mC]*dA*dT*dA*dT*eA*eA*eG*eG*eG) [compound 209534]”, 35%.
Still for that read-out and setting: the value for “155100 (antisense eA*eG*e[5mC]*eT*eG*dA*dT*dA*d[5mC]*dT*dT*d[5mC]*dA*dT*dA*eT*eT*e[5mC]*eA*e[5mC]) [compound 155100]” was 0%; that for “209552 (antisense eT*eG*eA*eA*eA*d[5mC]*dT*dT*dT*d[5mC]*dT*dA*dG*dG*dT*eG*eG*eA*eG*eA) [compound 209552]” was 0%; that for “155109 (antisense eA*eG*e[5mC]*eT*e[5mC]*dG*d[5mC]*dT*dG*dT*dT*d[5mC]*dA*dA*dT*eT*eT*e[5mC]*eA*eG) [compound 155109]” was 80%.
For the substance “209539 (antisense eG*e[5mC]*eT*eT*e[5mC]*d[5mC]*d[5mC]*d[5mC]*dA*dT*dT*dG*d[5mC]*dT*dG*eT*eT*eA*eG*eG) [compound 209539]”, the “% INHIB” value is 57%.
On the same count and under the same terms, the value for “155110 (antisense eT*e[5mC]*eG*eG*eG*dA*d[5mC]*dA*d[5mC]*dT*dA*dA*d[5mC]*dT*dG*eA*eA*eT*eT*e[5mC]) [compound 155110]” was 79%; that for “209554 (antisense eA*eG*eA*eG*eG*dG*dA*dA*dA*dT*d[5mC]*dG*dG*d[5mC]*d[5mC]*e[5mC]*e[5mC]*e[5mC]*eG*e[5mC]) [compound 209554]” was 0%; that for “155124 (antisense eT*eA*eT*eG*eA*dT*dG*dT*d[5mC]*dT*d[5mC]*d[5mC]*d[5mC]*dA*dG*eA*eA*eG*eG*eA) [compound 155124]” was 53%.
“209531 (antisense eT*eA*eA*eG*eT*d[5mC]*dA*dA*dT*dT*dT*dT*d[5mC]*dA*dA*eT*eT*eT*eA*eA) [compound 209531]”: the “% INHIB” value is reported as 13%.
Same read-out and setting: the value for “155127 (antisense eG*eA*eT*e[5mC]*eT*dG*dG*dT*dT*dG*dA*dA*d[5mC]*dT*dA*eT*eT*eA*e[5mC]*eT) [compound 155127]” was 84%.
The same measure, in the same setting: the value for “209538 (antisense eT*eG*eT*eG*eA*d[5mC]*dT*dT*dA*d[5mC]*d[5mC]*d[5mC]*dT*dA*dT*eT*eA*eA*eA*eG) [compound 209538]” was 28%; that for “209535 (antisense eA*eT*eA*eA*e[5mC]*dA*dA*dT*dA*d[5mC]*dA*dA*dG*dT*d[5mC]*e[5mC]*eT*eA*eT*eG) [compound 209535]” was 39%; that for “155108 (antisense eA*eT*eT*e[5mC]*eT*d[5mC]*dG*dG*dG*dA*d[5mC]*dA*d[5mC]*dT*dA*eA*e[5mC]*eT*eG*eA) [compound 155108]” was 79%.
Regarding “155098 (antisense eT*e[5mC]*eA*eG*eA*dA*dG*dT*dG*dT*d[5mC]*d[5mC]*dT*dA*dT*eT*eA*eA*eA*eG) [compound 155098]”, the “% INHIB” value is listed as 48%.
Same read-out and setting: under “209524 (antisense e[5mC]*eT*e[5mC]*eA*eT*dG*dT*dA*dG*dA*dA*dT*dG*dA*d[5mC]*eA*eT*eT*e[5mC]*eT) [compound 209524]” stands 95%.

The next series shares this test system.
Experiment: not given
Conditions: not given
For the substance “ISIS 155126: 2′-MOE gapmer, phosphorothioate backbone, sequence ctgtgcatttcaatgtattc (antisense CTGTGCATTTCAATGTATTC; all phosphorothioate, sugars by position and methylation of C not given here; 2'-MOE gapmer)”, the “inhibition of human hepatocyte growth factor receptor expression” value is recorded as “at least 35%”.
Still for that read-out and setting: the value for “ISIS 155104: 2′-MOE gapmer, phosphorothioate backbone, sequence atgcaatggatgatctggga (antisense ATGCAATGGATGATCTGGGA; all phosphorothioate, sugars by position and methylation of C not given here; 2'-MOE gapmer)” was “at least 35%”; that for “ISIS 209533: 2′-MOE gapmer, phosphorothioate backbone, sequence caccactggcaaagcaaaat (antisense CACCACTGGCAAAGCAAAAT; all phosphorothioate, sugars by position and methylation of C not given here; 2'-MOE gapmer)” was “at least 35%”.
On the same count and under the same terms, the value for “ISIS 155119: 2′-MOE gapmer, phosphorothioate backbone, sequence aagtatattaaacacttcct (antisense AAGTATATTAAACACTTCCT; all phosphorothioate, sugars by position and methylation of C not given here; 2'-MOE gapmer)” was “at least 35%”; that for “ISIS 155106: 2′-MOE gapmer, phosphorothioate backbone, sequence cacaacctgcatgaagcgac (antisense CACAACCTGCATGAAGCGAC; all phosphorothioate, sugars by position and methylation of C not given here; 2'-MOE gapmer)” was “at least 35%”.
As to “ISIS 209523: 2′-MOE gapmer, phosphorothioate backbone, sequence gggccttcattatgagaggt (antisense GGGCCTTCATTATGAGAGGT; all phosphorothioate, sugars by position and methylation of C not given here; 2'-MOE gapmer)”, the “inhibition of human hepatocyte growth factor receptor expression” value is on record as “at least 35%”.
Still for that read-out and setting: the value for “ISIS 155108: 2′-MOE gapmer, phosphorothioate backbone, sequence attctcgggacactaactga (antisense ATTCTCGGGACACTAACTGA; all phosphorothioate, sugars by position and methylation of C not given here; 2'-MOE gapmer)” was “at least 35%”.
